Consider 20 compounds from patent US9169205B2, “Pyrrolidine derivatives, pharmaceutical compositions and uses thereof” (Boehringer Ingelheim International GmbH, priority 2012, dated 2015).

pIC50: −log10 of the molar value.

The target of the assay is human ACC2 (Homo sapiens (Human), UniProt O00763). As to the kind of experiment: ACC2 assay (spectrophotometric 384 well assay, NADH-linked kinetic method). The format is biochemical. The following applies: hACC2 construct lacking 128 N-terminal amino acids, 25° C., 340 nm. The gist of the method: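 Baculovirus/insect-cell human ACC2, anion-exchange purified; ADP formation coupled to pyruvate kinase/lactate dehydrogenase, NADH loss followed at 340 nm, 25° C, 15 min. Final 200 μM NADH and acetyl-CoA, 500 uM ATP; vehicle and no-acetyl-CoA wells set 100% and 0%.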
Sequence of human ACC2 (O00763 129-2458): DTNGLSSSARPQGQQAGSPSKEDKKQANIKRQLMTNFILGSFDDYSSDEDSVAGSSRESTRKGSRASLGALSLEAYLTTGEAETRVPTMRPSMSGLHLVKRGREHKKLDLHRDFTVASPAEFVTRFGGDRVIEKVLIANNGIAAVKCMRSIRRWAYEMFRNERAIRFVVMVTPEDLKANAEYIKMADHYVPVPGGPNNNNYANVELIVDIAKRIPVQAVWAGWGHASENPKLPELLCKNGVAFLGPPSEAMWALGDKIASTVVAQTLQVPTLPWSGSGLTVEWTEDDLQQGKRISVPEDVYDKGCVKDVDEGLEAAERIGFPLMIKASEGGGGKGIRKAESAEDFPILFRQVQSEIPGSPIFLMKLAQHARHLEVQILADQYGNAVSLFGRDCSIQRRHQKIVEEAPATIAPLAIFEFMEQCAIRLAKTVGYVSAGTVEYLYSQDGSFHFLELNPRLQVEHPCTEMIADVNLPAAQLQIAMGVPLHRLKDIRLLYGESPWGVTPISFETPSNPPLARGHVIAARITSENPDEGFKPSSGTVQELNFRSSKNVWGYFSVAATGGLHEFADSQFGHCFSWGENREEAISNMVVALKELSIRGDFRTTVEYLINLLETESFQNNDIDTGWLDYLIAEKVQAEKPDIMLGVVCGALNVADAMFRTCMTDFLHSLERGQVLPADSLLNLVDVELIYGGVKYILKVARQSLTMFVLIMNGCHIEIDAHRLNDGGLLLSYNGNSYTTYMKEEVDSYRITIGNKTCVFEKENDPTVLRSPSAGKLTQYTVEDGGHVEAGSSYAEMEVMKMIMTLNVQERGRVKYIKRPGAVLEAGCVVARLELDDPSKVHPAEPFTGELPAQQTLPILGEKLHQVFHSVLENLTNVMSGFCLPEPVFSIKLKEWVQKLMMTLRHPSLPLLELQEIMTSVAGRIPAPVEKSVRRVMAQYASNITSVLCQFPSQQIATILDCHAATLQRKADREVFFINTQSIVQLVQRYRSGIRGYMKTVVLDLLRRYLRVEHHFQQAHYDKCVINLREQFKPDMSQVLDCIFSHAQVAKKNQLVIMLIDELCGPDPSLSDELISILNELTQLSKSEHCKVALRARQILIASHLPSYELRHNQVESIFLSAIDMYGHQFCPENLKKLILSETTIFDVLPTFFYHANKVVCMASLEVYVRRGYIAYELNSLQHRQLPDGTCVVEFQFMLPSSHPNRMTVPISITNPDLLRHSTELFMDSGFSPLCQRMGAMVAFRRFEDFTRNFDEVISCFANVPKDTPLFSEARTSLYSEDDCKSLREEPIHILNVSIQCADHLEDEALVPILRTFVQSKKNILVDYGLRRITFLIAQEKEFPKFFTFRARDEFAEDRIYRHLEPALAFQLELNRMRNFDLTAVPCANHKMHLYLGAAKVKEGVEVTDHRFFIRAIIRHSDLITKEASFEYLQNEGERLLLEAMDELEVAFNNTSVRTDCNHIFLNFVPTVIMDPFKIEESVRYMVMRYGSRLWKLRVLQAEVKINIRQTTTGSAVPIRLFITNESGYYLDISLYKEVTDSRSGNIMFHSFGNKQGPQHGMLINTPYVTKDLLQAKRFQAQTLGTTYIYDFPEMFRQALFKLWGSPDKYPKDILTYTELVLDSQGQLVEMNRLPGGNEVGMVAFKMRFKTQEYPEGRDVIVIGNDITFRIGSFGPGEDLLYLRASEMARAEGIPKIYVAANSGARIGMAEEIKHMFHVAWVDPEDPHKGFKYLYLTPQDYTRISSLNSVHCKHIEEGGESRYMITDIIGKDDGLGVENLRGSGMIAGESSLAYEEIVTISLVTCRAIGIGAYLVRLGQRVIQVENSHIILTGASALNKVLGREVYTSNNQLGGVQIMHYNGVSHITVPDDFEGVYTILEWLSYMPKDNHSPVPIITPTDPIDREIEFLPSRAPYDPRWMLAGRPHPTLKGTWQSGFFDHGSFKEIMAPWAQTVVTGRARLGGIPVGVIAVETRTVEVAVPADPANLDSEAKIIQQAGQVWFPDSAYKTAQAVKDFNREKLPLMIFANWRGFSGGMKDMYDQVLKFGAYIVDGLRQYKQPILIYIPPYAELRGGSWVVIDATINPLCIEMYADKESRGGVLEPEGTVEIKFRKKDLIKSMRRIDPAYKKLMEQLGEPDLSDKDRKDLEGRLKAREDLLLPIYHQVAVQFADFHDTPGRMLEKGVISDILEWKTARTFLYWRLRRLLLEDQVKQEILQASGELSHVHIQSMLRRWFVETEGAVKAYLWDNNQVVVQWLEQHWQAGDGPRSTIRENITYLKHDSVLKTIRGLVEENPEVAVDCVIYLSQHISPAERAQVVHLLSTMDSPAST
The pIC50 is the IC50 on a negative log10 scale, so that one unit is a factor of ten. Compound `Cc1cc(C(=O)N[C@@H](C)c2ccc(O[C@@H]3CCN(c4ccc(OCC5CC5)cc4)C3)cc2)[nH]n1` [Example 2.8] gave a pIC50 of 6.48. The value for `CCCOc1ccc(N2CCC(Oc3ccc([C@H](C)NC(C)=O)cc3)C2)c(Cl)c1` (some centres unmarked) [Example 1.29] was 7.22. In the case of `C[C@H](NC(=O)C(C)(C)C#N)c1ccc(O[C@@H]2CCN(c3ccc(OCC4CC4)cc3)C2)cc1` [Example 2.39] it was 6.33; in that of `C[C@H](NC(=O)c1cnco1)c1ccc(O[C@@H]2CCN(c3ccc(OCC4CC4)cc3)C2)cc1` [Example 2.22], 7.52; in that of `CC(=O)N[C@@H](C)c1ccc(OC2CCN(c3ccc4c(c3)CCO4)C2)cc1` (some centres unmarked) [Example 1.26], 6.40. Turning to `CC(=O)N[C@@H](C)c1ccc(OC2CCN(c3ccc(Cl)cc3)C2)cc1` (some centres unmarked) [Example 1.12], the negative-log IC50 (pIC50) is 6.05. Turning to `CCOc1ccc(N2CCC(Oc3ccc([C@H](C)NC(C)=O)cc3)C2)c(F)c1F` (some centres unmarked) [Example 1.62], the pIC50 was 6.47. In the case of `CC(=O)N[C@@H](C)c1ccc(OC2CCN(c3ccc(OC4CCC4)cc3)C2)cc1` (some centres unmarked) [Example 1.14] it was 7.44; in that of `C[C@H](NC(=O)c1cnn(CC(F)F)c1)c1ccc(O[C@@H]2CCN(c3ccc(OCC4CC4)cc3)C2)cc1` [Example 2.52], 6.09.

As to `COCCCOc1ccc(N2CC[C@@H](Oc3ccc([C@H](C)NC(C)=O)cc3)C2)cc1` [Example 4.1, N—((S)-1-(4-((R)-1-(4-(3-methoxypropoxy)phenyl)pyrrolidin-3-yloxy)phenyl)ethyl)-acetamide], the pIC50 was 6.34. `C[C@H](NC(=O)c1cnc(N)o1)c1ccc(O[C@@H]2CCN(c3ccc(OCC4CC4)cc3)C2)cc1` [Example 2.27] had a pIC50 of 6.97. The value for `CC(=O)N[C@@H](C)c1ccc(OC2CCN(c3ccc(F)c(Cl)c3)C2)cc1` (some centres unmarked) [Example 1.54] was 6.52; that for `C[C@H](NC(=O)c1cc[nH]n1)c1ccc(O[C@@H]2CCN(c3ccc(OCC4CC4)cc3)C2)cc1` [Example 2.13] was 6.44; that for `COc1ccc(N2CCC(Oc3ccc([C@H](C)NC(C)=O)cc3)C2)cc1C(F)(F)F` (some centres unmarked) [Example 1.32] was 6.27. In the case of `CC(=O)Nc1nc(C)c(C(=O)N[C@@H](C)c2ccc(OC3CCN(c4ccc(OCC5CC5)cc4)C3)cc2)s1` (some centres unmarked) [Example 2.1] it was 7.40; in that of `COc1cc(OCC2CC2(F)F)ccc1N1CCC(Oc2ccc([C@H](C)NC(C)=O)cc2)C1` (some centres unmarked) [Example 1.57], 6.35. `CC(=O)N[C@@H](C)c1ccc(OC2CCN(c3cccc4c3OCCO4)C2)cc1` (some centres unmarked) [Example 1.20]: the pIC50 was 5.53. The value for `CC(=O)N[C@@H](C)c1ccc(OC2CCN(c3ccc(OCc4ccccc4)cc3)C2)cc1` (some centres unmarked) [Example 4.5] was 6.18; that for `Cc1ncncc1C(=O)N[C@@H](C)c1ccc(O[C@@H]2CCN(c3ccc(OCC4CC4)cc3)C2)cc1` [Example 2.18] was 6.26; that for `Cc1cc(OC2CC2)ccc1N1CC[C@@H](Oc2ccc([C@H](C)NC(=O)CC#N)cc2)C1` [Example 2.59] was 6.17.
